The source of these data is ChEMBL document CHEMBL1130823, “New tetrahydronaphthalene derivatives as combined thromboxane receptor antagonists and thromboxane synthase inhibitors” (Bioorg Med Chem Lett, 1998).

A value given as a limit tells only on which side of the number the result lay.

Assay [1] has as its target T1, Thromboxane-A synthase (Homo sapiens, UniProt P24557).
T1 sequence (P24557 whole entry): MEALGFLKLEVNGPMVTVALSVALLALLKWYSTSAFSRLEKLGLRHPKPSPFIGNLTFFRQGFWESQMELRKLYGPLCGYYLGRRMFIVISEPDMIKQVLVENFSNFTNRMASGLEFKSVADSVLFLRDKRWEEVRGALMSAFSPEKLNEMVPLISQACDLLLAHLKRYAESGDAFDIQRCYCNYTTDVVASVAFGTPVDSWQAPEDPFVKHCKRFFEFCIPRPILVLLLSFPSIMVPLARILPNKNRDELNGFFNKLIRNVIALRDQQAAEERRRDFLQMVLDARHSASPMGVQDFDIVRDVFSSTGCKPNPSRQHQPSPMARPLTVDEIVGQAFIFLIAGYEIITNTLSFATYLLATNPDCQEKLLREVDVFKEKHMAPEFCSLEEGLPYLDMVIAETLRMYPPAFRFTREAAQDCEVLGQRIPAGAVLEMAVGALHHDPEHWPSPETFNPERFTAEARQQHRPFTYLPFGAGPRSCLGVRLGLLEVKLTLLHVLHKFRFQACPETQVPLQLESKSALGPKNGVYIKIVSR
As to the kind of experiment: Anti-synthetase activity against TXA2 synthase in human whole blood assay. The format is tissue-based.

Assay [2] is filed under the species Oryctolagus cuniculus. As to the kind of experiment: Inhibition of U-46,619 induced contraction of isolated rabbit saphenous vein. It counts as functional. The settings on record: read-out: pA2 (converted).
Assay [3] is filed under the species Homo sapiens. As to the kind of experiment: Inhibitory concentration required for the inhibition of U-46,619 induced aggregation of human platelets. It counts as functional.

In the case of `O=C(O)CCc1cc(Cc2cccnc2)cc2c1CCC(NS(=O)(=O)c1ccc(Cl)cc1)C2` (stereo not drawn), the IC50 is 1100 nM in assay [1] and 7 nM in assay [3]. Further, the Kb in assay [2] is 0.2 nM.

In the case of `Cc1c(Cc2cccnc2)cc2c(c1/C=C/CCCC(=O)O)CCC(NS(=O)(=O)c1ccc(Cl)cc1)C2` (stereo not drawn), the half-inhibitory concentration (IC50) in assay [1] was 2900 nM; in assay [3], 460 nM. For the same molecule, in assay [2], the Kb is 7.94 nM.

Regarding `O=C(O)CCc1c(Cc2cccnc2)ccc2c1CCC(NS(=O)(=O)c1ccc(Cl)cc1)C2` (stereo not drawn), the IC50 in assay [1] is greater than 10000 nM; in assay [3] it was 20 nM. In addition, the Kb in assay [2] is 0.316 nM.

Consider `O=C(O)CCC/C=C\c1c(Cc2cccnc2)ccc2c1CCC(NS(=O)(=O)c1ccc(Cl)cc1)C2` (stereo not drawn), for which the IC50 in assay [1] was found to be 350 nM; in assay [3], 160 nM. In addition, in assay [2], the Kb was 0.2 nM.

Consider `O=C(O)CCC/C=C\c1cc(Cc2cccnc2)cc2c1CCC(NS(=O)(=O)c1ccc(Cl)cc1)C2` (stereo not drawn), for which the half-inhibitory concentration (IC50) in assay [1] worked out at 4200 nM; in assay [3] it was 90 nM. For the same molecule, in assay [2], the Kb is 2.51 nM.

For the molecule `CCCc1c(Cc2cccnc2)cc2c(c1CCC(=O)O)CCC(NS(=O)(=O)c1ccc(Cl)cc1)C2` (stereo not drawn), the figures for the IC50 in assay [1] and in assay [3] were 640 nM and 63 nM, respectively. Moreover, the Kb in assay [2] is 3.98 nM.

Take `O=C(O)CC/C=C/c1cc(Cc2cccnc2)cc2c1CCC(NS(=O)(=O)c1ccc(Cl)cc1)C2` (stereo not drawn): the 50% inhibitory concentration (IC50) in assay [1] is greater than 10000 nM; in assay [3], 9 nM. For the same molecule, the Kb in assay [2] was 0.398 nM.

Take `Cc1c(Cc2cccnc2)cc2c(c1/C=C\CCCC(=O)O)CCC(NS(=O)(=O)c1ccc(Cl)cc1)C2` (stereo not drawn): the IC50 in assay [1] was found to be 960 nM; in assay [3], 1000 nM. In assay [2], the Kb is 10 nM.

Consider `Cc1c(Cc2cccnc2)cc2c(c1CCC(=O)O)CCC(NS(=O)(=O)c1ccc(Cl)cc1)C2` (stereo not drawn), for which the IC50 in assay [1] is 850 nM; in assay [3], 610 nM. In addition, the Kb in assay [2] was 158 nM.

Turning to `O=C(O)CCc1c2c(cc(Cc3cccnc3)c1-c1ccccc1)CC(NS(=O)(=O)c1ccc(Cl)cc1)CC2` (stereo not drawn), the IC50 in assay [1] is greater than 10000 nM; in assay [3], 180 nM. Also, the Kb in assay [2] is 0.794 nM.

`O=C(O)CC/C=C/c1c(Cc2cccnc2)ccc2c1CCC(NS(=O)(=O)c1ccc(Cl)cc1)C2` (stereo not drawn): the results for the IC50 in assay [1] and in assay [3] were 1400 nM and 47 nM, respectively. The Kb in assay [2] is 0.00794 nM.

Regarding `CCCCCc1c(Cc2cccnc2)cc2c(c1CCC(=O)O)CCC(NS(=O)(=O)c1ccc(Cl)cc1)C2` (stereo not drawn), the IC50 in assay [1] came out at 6600 nM; in assay [3] it was 270 nM. In addition, the Kb in assay [2] is 1.58 nM.

Regarding `O=C(O)CCC/C=C/c1c(Cc2cccnc2)ccc2c1CCC(NS(=O)(=O)c1ccc(Cl)cc1)C2` (stereo not drawn), the IC50 in assay [1] is 1100 nM; in assay [3], 450 nM. Besides, the Kb in assay [2] was 1.26 nM.

In the case of `O=C(O)CCc1cc(-c2cccnc2)cc2c1CCC(NS(=O)(=O)c1ccc(Cl)cc1)C2` (stereo not drawn), the IC50 in assay [1] is greater than 5000 nM; in assay [3], 670 nM. Besides, the Kb in assay [2] was 12.6 nM.

Take `O=C(O)CCc1c(-c2cccnc2)ccc2c1CCC(NS(=O)(=O)c1ccc(Cl)cc1)C2` (stereo not drawn): the results for the IC50 in assay [1] and in assay [3] were greater than 10000 nM and 140 nM, respectively. In addition, in assay [2], the Kb is 0.2 nM.

Turning to `O=C(O)CCC/C=C/c1cc(Cc2cccnc2)cc2c1CCC(NS(=O)(=O)c1ccc(Cl)cc1)C2` (stereo not drawn), the IC50 in assay [1] was greater than 5000 nM; in assay [3] it was 1200 nM. Moreover, in assay [2], the Kb is 2 nM.

For orientation: IC50 means the concentration that gives 50% inhibition. Lower therefore signals greater potency in that assay.
